Measurements: the supplement of paper PMC10307832

Legend:
Experiment in all cases: relative viability (nuclei count vs DMSO), 5 days (fraction); higher = more cells survive
NCI-H1666 = system: NCI-H1666
In short: (§1)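 Relative viability equals treated-well nuclei counts divided by vehicle-well nuclei counts. Counts came from 4× images of lung cancer cell lines grown in 1536-well plates for 5 days after pin-tool dosing on the day after seeding. Dosing used one drug alone or a fixed anchor-drug dose plus five library-drug doses (not always all listed) in √10 steps, and values are medians of duplicate plates.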

SK-MES-1 = system: SK-MES-1
In short: as §1

NCI-H1975 = system: NCI-H1975
In short: as §1

LK-2 = system: LK-2
In short: as §1

EKVX = system: EKVX
In short: as §1

A-427 = system: A-427
In short: as §1

COR-L 105 = system: COR-L 105
In short: as §1

EMC-BAC-2 = system: EMC-BAC-2
In short: as §1

PC-3 [JPC-3] = system: PC-3 [JPC-3]
In short: as §1

NCI-H23 = system: NCI-H23
In short: as §1

NCI-H520 = system: NCI-H520
In short: as §1

NCI-H1755 = system: NCI-H1755
In short: as §1

SW 900 = system: SW 900
In short: as §1

NCI-H1734 = system: NCI-H1734
In short: as §1

ChaGo-K-1 = system: ChaGo-K-1
In short: as §1

NCI-H2170 = system: NCI-H2170
In short: as §1

NCI-H441 = system: NCI-H441
In short: as §1

HCC-366 = system: HCC-366
In short: as §1

LOU-NH91 = system: LOU-NH91
In short: as §1

H3255 = system: H3255
In short: as §1

NCI-H596 = system: NCI-H596
In short: as §1

Cc1sc2c(c1C)C(c1ccc(Cl)cc1)=N[C@@H](CC(=O)OC(C)(C)C)c1nnc(C)n1-2 [JQ1] + O=C(c1cc(Cc2n[nH]c(=O)c3ccccc23)ccc1F)N1CCN(C(=O)C2CC2)CC1 [Olaparib] (partner 8 µM)
relative viability (NCI-H1666; first compound 0.04 µM): 0.708
relative viability (NCI-H1666; first compound 0.1265 µM): 0.616
relative viability (NCI-H1666; first compound 0.4 µM): 0.685
relative viability (NCI-H1666; first compound 1.265 µM): 0.662
relative viability (NCI-H1666; first compound 4 µM): 0.577
relative viability (SK-MES-1; first compound 0.04 µM): 0.671
relative viability (SK-MES-1; first compound 0.1265 µM): 0.606
relative viability (SK-MES-1; first compound 0.4 µM): 0.385
relative viability (SK-MES-1; first compound 1.265 µM): 0.208
relative viability (SK-MES-1; first compound 4 µM): 0.209
relative viability (NCI-H1975; first compound 0.04 µM): 0.747
relative viability (NCI-H1975; first compound 0.1265 µM): 0.608
relative viability (NCI-H1975; first compound 0.4 µM): 0.473
relative viability (NCI-H1975; first compound 1.265 µM): 0.281
relative viability (NCI-H1975; first compound 4 µM): 0.342
relative viability (LK-2; first compound 0.04 µM): 0.639
relative viability (LK-2; first compound 0.1265 µM): 0.74
relative viability (LK-2; first compound 0.4 µM): 0.409
relative viability (LK-2; first compound 1.265 µM): 0.155
relative viability (LK-2; first compound 4 µM): 0.15
relative viability (EKVX; first compound 0.04 µM): 0.836
relative viability (EKVX; first compound 0.1265 µM): 0.817
relative viability (EKVX; first compound 0.4 µM): 0.825
relative viability (EKVX; first compound 1.265 µM): 0.78
relative viability (EKVX; first compound 4 µM): 0.399
relative viability (A-427; first compound 0.04 µM): 0.693
relative viability (A-427; first compound 0.1265 µM): 0.72
relative viability (A-427; first compound 0.4 µM): 0.83
relative viability (A-427; first compound 1.265 µM): 0.709
relative viability (A-427; first compound 4 µM): 0.418
relative viability (COR-L 105; first compound 0.04 µM): 0.624
relative viability (COR-L 105; first compound 0.1265 µM): 0.497
relative viability (COR-L 105; first compound 0.4 µM): 0.385
relative viability (COR-L 105; first compound 1.265 µM): 0.329
relative viability (COR-L 105; first compound 4 µM): 0.351
relative viability (EMC-BAC-2; first compound 0.04 µM): 0.447
relative viability (EMC-BAC-2; first compound 0.1265 µM): 0.433
relative viability (EMC-BAC-2; first compound 0.4 µM): 0.391
relative viability (EMC-BAC-2; first compound 1.265 µM): 0.32
relative viability (EMC-BAC-2; first compound 4 µM): 0.259
relative viability (PC-3 [JPC-3]; first compound 0.04 µM): 1.1
relative viability (PC-3 [JPC-3]; first compound 0.1265 µM): 0.992
relative viability (PC-3 [JPC-3]; first compound 0.4 µM): 1.05
relative viability (PC-3 [JPC-3]; first compound 1.265 µM): 0.66
relative viability (PC-3 [JPC-3]; first compound 4 µM): 0.385
relative viability (NCI-H23; first compound 0.04 µM): 0.329
relative viability (NCI-H23; first compound 0.1265 µM): 0.341
relative viability (NCI-H23; first compound 0.4 µM): 0.162
relative viability (NCI-H23; first compound 1.265 µM): 0.179
relative viability (NCI-H23; first compound 4 µM): 0.127
relative viability (NCI-H520; first compound 0.04 µM): 0.285
relative viability (NCI-H520; first compound 0.1265 µM): 0.298
relative viability (NCI-H520; first compound 0.4 µM): 0.251
relative viability (NCI-H520; first compound 1.265 µM): 0.165
relative viability (NCI-H520; first compound 4 µM): 0.156
relative viability (NCI-H1755; first compound 0.04 µM): 0.887
relative viability (NCI-H1755; first compound 0.1265 µM): 0.824
relative viability (NCI-H1755; first compound 0.4 µM): 0.806
relative viability (NCI-H1755; first compound 1.265 µM): 0.644
relative viability (NCI-H1755; first compound 4 µM): 0.611
relative viability (SW 900; first compound 0.04 µM): 0.862
relative viability (SW 900; first compound 0.1265 µM): 0.739
relative viability (SW 900; first compound 0.4 µM): 0.479
relative viability (SW 900; first compound 1.265 µM): 0.303
relative viability (SW 900; first compound 4 µM): 0.22
relative viability (NCI-H1734; first compound 0.04 µM): 0.606
relative viability (NCI-H1734; first compound 0.1265 µM): 0.556
relative viability (NCI-H1734; first compound 0.4 µM): 0.563
relative viability (NCI-H1734; first compound 1.265 µM): 0.47
relative viability (NCI-H1734; first compound 4 µM): 0.349
relative viability (ChaGo-K-1; first compound 0.04 µM): 0.392
relative viability (ChaGo-K-1; first compound 0.1265 µM): 0.37
relative viability (ChaGo-K-1; first compound 0.4 µM): 0.29
relative viability (ChaGo-K-1; first compound 1.265 µM): 0.239
relative viability (ChaGo-K-1; first compound 4 µM): 0.214
relative viability (NCI-H2170; first compound 0.04 µM): 0.614
relative viability (NCI-H2170; first compound 0.1265 µM): 0.532
relative viability (NCI-H2170; first compound 0.4 µM): 0.361
relative viability (NCI-H2170; first compound 1.265 µM): 0.226
relative viability (NCI-H2170; first compound 4 µM): 0.213
relative viability (NCI-H441; first compound 0.04 µM): 0.612
relative viability (NCI-H441; first compound 0.1265 µM): 0.523
relative viability (NCI-H441; first compound 0.4 µM): 0.256
relative viability (NCI-H441; first compound 1.265 µM): 0.17
relative viability (NCI-H441; first compound 4 µM): 0.17
relative viability (HCC-366; first compound 0.04 µM): 0.349
relative viability (HCC-366; first compound 0.4 µM): 0.197
relative viability (HCC-366; first compound 1.265 µM): 0.102
relative viability (HCC-366; first compound 4 µM): 0.0747
relative viability (LOU-NH91; first compound 0.04 µM): 0.911
relative viability (LOU-NH91; first compound 0.1265 µM): 0.769
relative viability (LOU-NH91; first compound 0.4 µM): 0.647
relative viability (LOU-NH91; first compound 1.265 µM): 0.488
relative viability (LOU-NH91; first compound 4 µM): 0.421
relative viability (H3255; first compound 0.04 µM): 0.528
relative viability (H3255; first compound 0.1265 µM): 0.492
relative viability (H3255; first compound 0.4 µM): 0.439
relative viability (H3255; first compound 1.265 µM): 0.305
relative viability (H3255; first compound 4 µM): 0.264
relative viability (NCI-H596; first compound 0.04 µM): 0.618
relative viability (NCI-H596; first compound 0.1265 µM): 0.499
relative viability (NCI-H596; first compound 0.4 µM): 0.367
relative viability (NCI-H596; first compound 1.265 µM): 0.326
relative viability (NCI-H596; first compound 4 µM): 0.321
